The values that follow come from patent US8273754B2, “Substituted 1H-pyrazolo[3,4-D]pyrimidine-6-amine compounds” (ArQule, Inc., priority 2008, dated 2012).

The test system of the assay is cancer cells. Nature of the assay: MTS cell growth inhibition assay (72 hours). In kind it is cell-based. In a few lines: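 Growth inhibition read as formazan absorbance at 492 nm after 4 h MTS/PMS, following 72 h compound exposure at 37 °C in 1% FBS DMEM (cells pre-seeded 18 h). IC50 = 50% absorbance reduction; inhibition graded in bands.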
The mark [1] stands for this setting: Homo sapiens, DLD-1, 72 h, DLD-1 cells, read-out: DLD-1 MTS 72 hr at 10 μM.
The mark [2] stands for this setting: Homo sapiens, KATO III, 72 h, KATO III cells, read-out: KATO III MTS 72 hr at 10 μM.
The mark [3] stands for this setting: Homo sapiens, MDA-MB-231, 72 h, MDA-MB-231 cells, read-out: MDA-MB-231 MTS 72 hr at 10 μM.
[4] abbreviates: Homo sapiens, NCI-H1299, 72 h, NCI-H1299 cells, read-out: NCI-H1299 MTS 72 hr at 10 μM.
Where [5] appears, read: PaCa-2, 72 h, PACA-2 cells, read-out: PACA-2 MTS 72 hr at 10 μM.

Where two headings read alike, the source gives them in different places.

Consider `CCOC(=O)c1ccc(NC(=O)N2CC(Nc3nc(N)nc4[nH]ncc34)Cc3ccccc32)cc1` (centres unmarked) [Compound 114, ethyl 4-(3-(6-amino-1H-pyrazolo[3,4-d]pyrimidin-4-ylamino)-1,2,3,4-tetrahydroquinoline-1-carboxamido)benzoate], for which the inhibition at 10 µM under setting [1] is above 79%; the inhibition at 10 µM under setting [2] was below 50%; the inhibition at 10 µM under setting [3] is below 50%; the inhibition at 10 µM under setting [4] was below 50%; the inhibition at 10 µM under setting [5] was below 50%.
Regarding `Nc1nc(NC2Cc3ccccc3N(C(=O)NCc3ccc(F)cc3)C2)c2cn[nH]c2n1` (centres unmarked) [Compound 115, 3-(6-amino-1H-pyrazolo[3,4-d]pyrimidin-4-ylamino)-N-(4-fluorobenzyl)-3,4-dihydroquinoline-1(2H)-carboxamide], the inhibition at 10 µM was below 50% under setting [1]; below 50% under setting [2]; below 50% under setting [3]; below 50% under setting [4]; below 50% under setting [5].
Turning to `COc1ccc(CCNC(=O)N2CC(Nc3nc(N)nc4[nH]ncc34)Cc3ccccc32)cc1` (centres unmarked) [Compound 116, 3-(6-amino-1H-pyrazolo[3,4-d]pyrimidin-4-ylamino)-N-(4-methoxyphenethyl)-3,4-dihydroquinoline-1(2H)-carboxamide], the inhibition at 10 µM is, setting by setting: under setting [1], below 50%; under setting [2], below 50%; under setting [3], below 50%; under setting [4], below 50%; under setting [5], below 50%.
Turning to `Nc1nc(NC2Cc3ccccc3N(C(=O)Nc3ccc(C(F)(F)F)cc3)C2)c2cn[nH]c2n1` (centres unmarked) [Compound 117, 3-(6-amino-1H-pyrazolo[3,4-d]pyrimidin-4-ylamino)-N-(4-(trifluoromethyl)phenyl)-3,4-dihydroquinoline-1(2H)-carboxamide], the inhibition at 10 µM was below 50% under setting [1]; below 50% under setting [2]; below 50% under setting [3]; below 50% under setting [4]; below 50% under setting [5].
Turning to `Nc1nc(NC2Cc3ccccc3N(C(=O)Nc3ccccc3Cl)C2)c2cn[nH]c2n1` (centres unmarked) [Compound 118, 3-(6-amino-1H-pyrazolo[3,4-d]pyrimidin-4-ylamino)-N-(2-chlorophenyl)-3,4-dihydroquinoline-1(2H)-carboxamide], the inhibition at 10 µM under setting [1] was below 50%; the inhibition at 10 µM under setting [2] was below 50%; the inhibition at 10 µM under setting [3] is below 50%; the inhibition at 10 µM under setting [4] was below 50%; the inhibition at 10 µM under setting [5] is below 50%.
In the case of `COC(=O)c1ccccc1NC(=O)N1CC(Nc2nc(N)nc3[nH]ncc23)Cc2ccccc21` (centres unmarked) [Compound 119, methyl 2-(3-(6-amino-1H-pyrazolo[3,4-d]pyrimidin-4-ylamino)-1,2,3,4-tetrahydroquinoline-1-carboxamido)benzoate], the inhibition at 10 µM is, setting by setting: under setting [1], above 79%; under setting [2], above 79%; under setting [3], above 79%; under setting [4], above 79%; under setting [5], above 79%.
`Nc1nc(NC2Cc3ccccc3N(C(=O)Nc3ccc(F)c(F)c3F)C2)c2cn[nH]c2n1` (centres unmarked) [Compound 120, 3-(6-amino-1H-pyrazolo[3,4-d]pyrimidin-4-ylamino)-N-(2,3,4-trifluorophenyl)-3,4-dihydroquinoline-1(2H)-carboxamide]: the inhibition at 10 µM under setting [1] was above 79%; the inhibition at 10 µM under setting [2] is above 79%; the inhibition at 10 µM under setting [3] was 50 to 79%; the inhibition at 10 µM under setting [4] was below 50%; the inhibition at 10 µM under setting [5] was above 79%.
Take `Cc1ccc(CN2CC(Nc3nc(N)nc4[nH]ncc34)Cc3ccccc32)cc1C` (centres unmarked) [Compound 130, N4-[1-(3,4-dimethylbenzyl)-1,2,3,4-tetrahydroquinolin-3-yl]-1H-pyrazolo[3,4-d]pyrimidine-4,6-diamine]: the inhibition at 10 µM is below 50% under setting [1]; below 50% under setting [2]; below 50% under setting [3]; below 50% under setting [4]; below 50% under setting [5].
With `Nc1nc(NC2Cc3ccccc3N(Cc3ccc4nccnc4c3)C2)c2cn[nH]c2n1` (centres unmarked) [Compound 133, N4-[1-(quinoxalin-6-ylmethyl)-1,2,3,4-tetrahydroquinolin-3-yl]-1H-pyrazolo[3,4-d]pyrimidine-4,6-diamine], the inhibition at 10 µM was below 50% under setting [1]; below 50% under setting [2]; below 50% under setting [3]; below 50% under setting [4]; below 50% under setting [5].
With `Cc1ccc(CN2CC(Nc3nc(N)nc4[nH]ncc34)Cc3ccccc32)c(C)c1` (centres unmarked) [Compound 134, N4-[1-(2,4-dimethylbenzyl)-1,2,3,4-tetrahydroquinolin-3-yl]-1H-pyrazolo[3,4-d]pyrimidine-4,6-diamine], the inhibition at 10 µM is, setting by setting: under setting [1], above 79%; under setting [2], above 79%; under setting [3], below 50%; under setting [4], below 50%; under setting [5], 50 to 79%.
`Cc1ccc(F)c(CN2CC(Nc3nc(N)nc4[nH]ncc34)Cc3ccccc32)c1` (centres unmarked) [Compound 135, N4-[1-(2-fluoro-5-methylbenzyl)-1,2,3,4-tetrahydroquinolin-3-yl]-1H-pyrazolo[3,4-d]pyrimidine-4,6-diamine]: the inhibition at 10 µM is, setting by setting: under setting [1], above 79%; under setting [2], above 79%; under setting [3], 50 to 79%; under setting [4], 50 to 79%; under setting [5], above 79%.
In the case of `Nc1nc(NC2Cc3ccccc3N(Cc3ccc(-c4cccs4)cc3)C2)c2cn[nH]c2n1` (centres unmarked) [Compound 136, N4-{1-[4-(2-thienyl)benzyl]-1,2,3,4-tetrahydroquinolin-3-yl}-1H-pyrazolo[3,4-d]pyrimidine-4,6-diamine], the inhibition at 10 µM is, setting by setting: under setting [1], above 79%; under setting [2], above 79%; under setting [3], below 50%; under setting [4], below 50%; under setting [5], below 50%.
On to `COc1cccc(CN2CC(Nc3nc(N)nc4[nH]ncc34)Cc3ccccc32)c1F` (centres unmarked) [Compound 137, N4-[1-(2-fluoro-3-methoxybenzyl)-1,2,3,4-tetrahydroquinolin-3-yl]-1H-pyrazolo[3,4-d]pyrimidine-4,6-diamine], for which the inhibition at 10 µM under setting [1] was above 79%; the inhibition at 10 µM under setting [2] is above 79%; the inhibition at 10 µM under setting [3] was above 79%; the inhibition at 10 µM under setting [4] was above 79%; the inhibition at 10 µM under setting [5] was above 79%.
Turning to `N#Cc1cc(CN2CC(Nc3nc(N)nc4[nH]ncc34)Cc3ccccc32)ccc1F` (centres unmarked) [Compound 138, 5-({3-[(6-amino-1H-pyrazolo[3,4-d]pyrimidin-4-yl)amino]-3,4-dihydroquinolin-1(2H)-yl}methyl)-2-fluorobenzonitrile], the inhibition at 10 µM by setting is: under setting [1], below 50%; under setting [2], below 50%; under setting [3], below 50%; under setting [4], below 50%; under setting [5], below 50%.
As to `CS(=O)(=O)c1ccc(CN2CC(Nc3nc(N)nc4[nH]ncc34)Cc3ccccc32)cc1` (centres unmarked) [Compound 139, N4-{1-[4-(methylsulfonyl)benzyl]-1,2,3,4-tetrahydroquinolin-3-yl}-1H-pyrazolo[3,4-d]pyrimidine-4,6-diamine], the inhibition at 10 µM by setting is: under setting [1], above 79%; under setting [2], above 79%; under setting [3], below 50%; under setting [4], below 50%; under setting [5], 50 to 79%.
As for `Nc1nc(NC2Cc3ccccc3N(Cc3c(F)cccc3Cl)C2)c2cn[nH]c2n1` (centres unmarked) [Compound 140, N4-[1-(2-chloro-6-fluorobenzyl)-1,2,3,4-tetrahydroquinolin-3-yl]-1H-pyrazolo[3,4-d]pyrimidine-4,6-diamine], the inhibition at 10 µM under setting [1] is above 79%; the inhibition at 10 µM under setting [2] is above 79%; the inhibition at 10 µM under setting [3] was above 79%; the inhibition at 10 µM under setting [4] was 50 to 79%; the inhibition at 10 µM under setting [5] is above 79%.
For the molecule `COc1cc(F)ccc1CN1CC(Nc2nc(N)nc3[nH]ncc23)Cc2ccccc21` (centres unmarked) [Compound 141, N4-[1-(4-fluoro-2-methoxybenzyl)-1,2,3,4-tetrahydroquinolin-3-yl]-1H-pyrazolo[3,4-d]pyrimidine-4,6-diamine], the inhibition at 10 µM reads like this: under setting [1], above 79%; under setting [2], above 79%; under setting [3], above 79%; under setting [4], above 79%; under setting [5], above 79%.
In the case of `COc1ccc(F)c(CN2CC(Nc3nc(N)nc4[nH]ncc34)Cc3ccccc32)c1` (centres unmarked) [Compound 142, N4-[1-(2-fluoro-5-methoxybenzyl)-1,2,3,4-tetrahydroquinolin-3-yl]-1H-pyrazolo[3,4-d]pyrimidine-4,6-diamine], the inhibition at 10 µM under setting [1] is below 50%; the inhibition at 10 µM under setting [2] fell in the range of 50 to 79%; the inhibition at 10 µM under setting [3] was below 50%; the inhibition at 10 µM under setting [4] was below 50%; the inhibition at 10 µM under setting [5] is above 79%.
Regarding `Nc1nc(NC2Cc3ccccc3N(Cc3ccc(-c4ccccn4)cc3)C2)c2cn[nH]c2n1` (centres unmarked) [Compound 143, N4-[1-(4-pyridin-2-ylbenzyl)-1,2,3,4-tetrahydroquinolin-3-yl]-1H-pyrazolo[3,4-d]pyrimidine-4,6-diamine], the inhibition at 10 µM was below 50% under setting [1]; below 50% under setting [2]; below 50% under setting [3]; below 50% under setting [4]; below 50% under setting [5].
